From a melting point compilation (Tetko et al.; mined from patent text by program, amines drawn as free bases though some values may be those of a salt)

melting point [°C] | SMILES
120 to 122 | O=C(C(=O)c1cccc(C(=O)C(=O)c2ccc(Oc3ccc(Br)cc3)cc2)c1)c1ccc(Oc2ccc(Br)cc2)cc1
64.4 | CCCCCCCSc1ccc(-c2ccc(C#N)cc2)cc1
114 to 117 | CCOc1ccc(C2(c3ccc(OC)cc3)CC2(Cl)Cl)cc1 (stereo not drawn)
175 | CC(C#Cc1ccc(C=Cc2ccccn2)o1)N(O)C(N)=O (stereo not drawn)
90 | c1cc(-c2ccc(OCCCN3CCCCC3)cc2)ccc1CN1CCCCC1
139 to 141 | Cc1cc(OCCN(C)C)ccc1NC(=O)c1ccc(N2CCNCC2)cc1
150 to 151 | CC1CCN(Cc2ccc(CCC(=O)Nc3ccc(-c4ccc(Cl)cc4)cc3)cc2)CC1
154 to 155 | O=C(O)Cc1ccc2c(c1)CC(NS(=O)(=O)c1ccc(Cl)cc1)C2 (stereo not drawn)
134 to 137 | Cc1c(NC(=O)C(CSC(=O)Cc2cccs2)Cc2ccccc2)cccc1C(=O)O (stereo not drawn)
197 to 198 | CC(C)(COC(=O)COc1ccc(C(=O)CN2Cc3cc(C(N)=S)ccc3C2=O)cc1)NS(=O)(=O)c1cccnc1
230 to 231 | NS(=O)(=O)c1ccc(NC(=O)c2ccccc2S)cc1
122 to 124 | COc1ccc(CNC2(Cc3ccccc3)CCC(=O)CC2)cc1
142 to 144 | O=C(O)c1ccc(S(=O)(=O)CCCl)cc1
164 to 165 | CN1CC(CCN(C)c2ccccc2)Oc2ncccc2C1=S (stereo not drawn)
124 to 125 | CCCSc1cccc(-c2nc(=O)c3ccccc3s2)n1
190 to 192 | Cn1c(=O)ccc2c(-c3ccccc3)nccc21
92 to 93.5 | Cc1ccc(C(=CC=O)c2ccc(C)cc2)cc1
102 to 103 | CC1(C)Oc2ccc(C#N)cc2C(Oc2ccccn2)C1O (stereo not drawn)
135 to 136 | CCC(CC)C(NS(=O)(=O)c1ccc(Cl)cc1)c1ccnn1-c1ccccc1 (stereo not drawn)
225 to 226 | CSc1nccn1-c1nc(-c2ccc(Cl)cc2)c(CCC(=O)O)o1
70 to 72 | COC(=O)C(C)Oc1cccc2cccnc12 (stereo not drawn)
205 | Oc1ccc(C(=S)N2CCOCC2)cc1
67 to 70 | O=C(c1ccc(OC(F)(F)F)cc1)c1sccc1O
127 to 128 | CCOC(=O)c1cnn(-c2ccc(Cl)cc2)c1
147 | O=[N+]([O-])c1ccc(C=Cc2ccc(OCC(O)CO)cc2)cc1 (stereo not drawn)
244 to 246 | O=C(O)c1ccc(Nc2noc(C(F)(F)F)n2)cc1
252 to 253 | Oc1cccc(-c2ncc3ncc(Cl)cc3n2)c1
118 to 120 | O=C(C=C1CC(C(=O)O)Nc2cc(Cl)ccc21)Nc1ccccc1 (racemic)

Continued, molecule first:

SMILES | melting point [°C]
C[C@@H](N1CC(=O)N(c2ccc(OC(F)(F)C(F)F)cc2)CC1=O)[C@@]1(c2ccc(F)cc2F)CO1 | 168 to 170
Clc1cc(CC2(Cc3ccnc(Cl)c3)c3ccccc3-c3ncccc32)ccn1 | 188 to 190
CC1(C)CC(=O)CC(C)(C)N1SSSSN1C(C)(C)CC(=O)CC1(C)C | 148 to 150
CCc1cccc(C2(O)C3CC4CC(C3)CC2C4)c1 (stereo not drawn) | 63 to 65
CCOC(=O)C(C#N)=NOC(=O)OCc1ccccc1 | 101 to 102
O=[N+]([O-])c1c(OC(F)(F)F)ccc2nc(Cl)sc12 | 64
O=C1CCC(N2C=Nc3ccccc3CC2)C(=O)N1 (stereo not drawn) | 84 to 91
CC(=O)NCC1CN(c2ccc(N3CCC(C4NN=C(N)S4)CC3)c(F)c2)C(=O)O1 (stereo not drawn) | 168 to 169
COC(=O)c1cc(-c2c(Br)c(C(F)(F)F)n(C)c2Br)c(F)cc1Cl | 97
COc1c(Cl)ccc(-c2nc(C(=O)OCc3ccc(OC(F)(F)F)cc3)c(Cl)c(N)c2F)c1F | 155 to 156
CCOc1cc(NCCO)c([N+](=O)[O-])cc1O | 180
CCn1cc(C(=O)O)c(=O)c2cc(F)c(N3CCN(O)CC3)c(F)c21 | 253 to 260
O=c1nc(-c2cccc(CS(=O)(=O)Cc3ccccc3)n2)sc2ccccc12 | 246 to 248
CCOc1ccc(-c2cc(C(F)(F)F)n3ncc(-c4cccnc4)c3n2)cc1C(F)(F)F | 178
Cn1cc(C(=O)CCC(=O)O)nc1-c1ccccc1 | 191 to 192
Cc1cccc(C2C(C#N)=C(C(C)C)Nc3n[nH]cc32)c1[N+](=O)[O-] (stereo not drawn) | 261
N#Cc1cc(F)c(-c2ncnc(C(F)(F)F)c2Cl)cc1[N+](=O)[O-] | 90 to 92
CS(=O)(=O)Nc1ccc(CCCOCCCCCCNCC(O)c2cc(O)cc(O)c2)cc1 (stereo not drawn) | 66 to 69
C[C@@H]1S[C@@H](C(=O)Nc2ccc(CC3SC(=O)NC3=O)cc2)Cc2cc3c(cc2C1=O)OCO3 (stereo partly drawn) | 139 to 144
CN1Cc2c(I)ncn2-c2ccc(F)cc2C1=O | 187 to 188
CS(=O)(=O)c1c(C(N)=NO)nn(-c2c(Cl)cc(C(F)(F)F)cc2Cl)c1N | 132 to 134
OCCSC1=NN(SCCO)CS1 | 80
O=C(CCOCCOCCC(=O)Oc1cc(O)cc(O)c1)Oc1cc(O)cc(O)c1 | 166 to 168

SMILES | melting point [°C]
CCc1[nH]n(C2CCCC2)c2nc(-c3cccc(-n4ccnc4)c3)nc(=O)c1-2 | 264 to 265
c1cnc2[nH]c(CCCN3CCOCC3)nc2c1 | 101 to 103
COc1cc2c(c(OC)c1OC)C1=C(CCC1)C(=O)CC2 | 101 to 102
CN1C(=O)[C@H](NC(=O)/C=C/c2ccc(Cl)cc2Cl)N=C(c2ccccc2)c2ccccc21 | 137 to 139
O=C(O)c1cc(-n2c(-c3cccc(C(F)(F)F)c3)cc3c2CCCC3)ccc1O | 215 to 225
CN1CCN(C)C(c2ccc([N+](=O)[O-])cc2)C1=O (stereo not drawn) | 99 to 102
Cc1noc(C)c1Cn1nnnc1-c1cccc(Cl)c1Cl | 176 to 178
O=C1CN(c2ccncc2)CCN1 | 268 to 270
CONc1nc(N)nc2c1ncn2[C@@H]1C[C@H](CO)[C@@H](O)[C@H]1O | 106 to 110
Cc1c(C#N)sc2nc(-c3ccncc3)nc(N3CCOCC3)c12 | > 250
Cc1csc(C(=O)c2[nH]c3cc(Cl)ccc3c2CC(=O)O)n1 | 239 to 240
O=C(Cl)C(=O)c1cn(Cc2ccc(F)cc2)c2ccc(OCc3ccccc3)cc12 | 155 to 158
CC(=O)CCCCC(=O)Nc1ccc(C=CC(=O)O)cc1 | 222 to 225
COC(=O)c1c(C(F)F)nc(C(F)(F)F)c(C(=O)OC)c1O | 83 to 84.5
CCON=Cc1cnnc2ccccc12 | 78 to 81
CCC(O)c1c(C(C)C)nc(C(C)C)c(CO)c1-c1ccc(F)cc1 (stereo not drawn) | 173 to 175
CSc1nnc2c(=O)c3ccc(Cl)cc3ccn12 | 254 to 255
NCc1ccc(-c2csc(N)n2)s1 | 189
CC(C)(C)OC(=O)N(Cc1ncccc1C(N)=NO)C(=O)OC(C)(C)C | 178 to 180
CCCCCCCCCCCCCCCCCCOc1cc(OC(=O)C(c2ccccc2)c2ccccc2)cc(C(=O)OCc2ccccc2)c1 | 47 to 49
CCOc1cc(N(CC)CC)ccc1C1(c2ccc(N(C)C)cc2N(C)C)OC(=O)c2ccccc21 (stereo not drawn) | 146 to 150
Cc1nn2ccc3c(c2c1CO)CCO3 | 173 to 174
